Measurements published in patent US20150238637A1, “Blood-brain Barrier Epitopes and Uses Thereof” (NATIONAL RESEARCH COUNCIL OF CANADA, priority 2005, published 2015).

Key:
HCEC monolayers = assay: Transport across the in vitro blood brain barrier model; assay type: cell-based, human; details: for effect on FC5 transport across the in vitro BBB model: 30 minutes preincubation
Procedure: HCEC (80,000 cells/membrane) were seeded on a 0.5% gelatin coated Falcon tissue culture inserts (pore size-1 μm; surface area 0.83 cm^2) in 1 ml of growth medium. The bottom chamber of the insert assembly contained 2 ml of growth medium supplemented with the fetal human astrocyte-conditioned medium in a 1:1 (v/v) ratio (Muruganandam et al., 1997).
Transport studies were performed 7 days post-seeding as described previously (Muruganandam et al., 1997; Muruganandam et al., 2002). Filter inserts were rinsed with transport buffer [phosphate buffered saline (PBS) containing 5 mM glucose, 5 mM MgCl2, 10 mM HEPES, 0.05% bovine serum albumin (BSA), pH 7.4] and allowed to equilibrate at 37° C. for 30 minutes. Experiments were initiated by adding 10 μg/ml FC5 to either apical or basolateral side of inserts containing either 0.5% gelatin-coated inserts without cells, control HCEC or HCEC pre-exposed to various pharmacological modulators for 30 min. Transport studies were conducted at 37° C. with plates positioned on a rotating platform stirring at 30-40 rpm. Aliquots (100 μl) were collected from the opposite chamber at various time intervals (5, 15, 30, 60, 90 minutes) and replaced with fresh buffer. The amount of FC5 transported across empty inserts or HCEC monolayers was determined by enzyme linked immunosorbent assay (ELISA) (see below). To control for HCEC membrane integrity and to estimate paracellular diffusion, the apical-to-basolateral and basolateral-to-apical clearance rates of [^14C]-sucrose were determined and calculated essentially as described previously (Muruganandam et al., 2002; Garberg et al., 2005) across the same monolayers used for FC5 transport studies. Sample-associated radioactivity in 50 μl aliquots was measured using a Mircobeta Trilux liquid scintillation counter (Wallac, Finland).
Clearance was calculated as Cl (ml)=CA/CI×VA, where CI is the initial tracer or sdAb concentration in the donor chamber, CA is the tracer or sdAb concentration in the accepter chamber, and VA is the volume of the acceptor chamber. […] The effects of pharmacological agents on FC5 transmigration was subsequently assessed at 30 min.
To measure the amount of FC5 transmigrated across the in vitro BBB model, 50 μl aliquots collected from the appropriate compartment were immobilized overnight at room temperature in a HisGrab nickel coated 96-well plate (Pierce). After blocking the plates with 2% BSA for 2 hours at room temperature, anti-c-Myc monoclonal antibody conjugated to HRP was added at a dilution of 1:5000 for 1 hour. After washing, the bound FC5 was detected with tetramethylbenzidine (TMB)/hydrogen peroxide substrate system. The signal was measured at […] on a microtiter plate reader. FC5 concentrations in collected aliquots were determined from a standard curve constructed using known FC5 concentrations.

HCEC = assay: Uptake into human cerebromicrovascular endothelial cells (immunofluorescence); assay type: cell-based; details: data not shown; for effect on FC5 uptake into HCEC: 30 minutes preincubation
Procedure: The uptake of FC5 into HCEC was tested 15-90 minutes after adding 5 μg/ml of FC5 in the absence or presence of various pharmacological modulators of endocytosis. To visualize the intracellular distribution of FC5, cells were fixed, permeabilized and probed with the anti-c-myc antibody (1:100; 1 hour) followed by incubation with FITC-labeled anti-mouse IgG (1:250; 1 hour).

[1] = 5 μg/ml, 30 minutes pretreatment

In the case of COC(=O)Nc1nc2ccc(C(=O)c3cccs3)cc2[nH]1 [nocodazole], the “effect on FC5 transcytosis” value (HCEC monolayers; 20 μM, 30 minutes pre-incubation) is reported as “did not interfere”.
With methyl-β-cyclodextrin the “effect on FC5 transmigration across in vitro BBB model” value (from here on “effect on FC5 transmigration across”) (HCEC monolayers; methyl-β-cyclodextrin 5 mM, 30 minutes pretreatment) was “None of the caveolae-mediated endocytosis inhibitors tested affected”.
For O=CC[C@@H](O)[C@H](O)[C@H](O)CO [2-deoxyglucose], the “effect on FC5 transmigration” value (HCEC monolayers; 5 mM sodium azide and 5 mM 2-deoxyglucose together, 30 min, glucose-free medium) was “near-complete inhibition”.
CCCCC[C@@H](O)[C@H]1C(=O)O[C@H](C)[C@@H](O)/C=C/C=C/C=C/C=C/C=C(\C)[C@@H](O)C[C@H](O)C[C@H](O)C[C@H](O)C[C@H](O)C[C@H](O)C[C@@H]1O [filipin] was tested, and the “effect on FC5 transmigration across” value (HCEC monolayers; [1]) was “None of the caveolae-mediated endocytosis inhibitors tested affected”.
N=C(N)NC(=O)c1nc(Cl)c(N)nc1N [amiloride] was tested, and the “effect on transendothelial migration of FC5” value (HCEC monolayers; amiloride 500 μM) was “no effect”.
heparin sulfate was tested, and the “effect on FC5 transcytosis across the BBB in vitro” value (HCEC monolayers; heparin sulfate 50 U/ml pre-incubation) was “did not affect”.
With poly-L-lysine the “effect on FC5 transport across the in vitro BBB model” value (HCEC monolayers; poly-L-lysine 300 μM) was “Neither compound affected” and the “effect on FC5 uptake into HCEC” value (HCEC; poly-L-lysine 300 μM) was “Neither compound affected”.
For CC[C@@]1([C@@H]2O[C@@H]([C@H]3O[C@@](O)(CO)[C@H](C)C[C@@H]3C)C[C@@H]2C)CC[C@H]([C@]2(C)CC[C@]3(C[C@H](O)[C@@H](C)[C@@H]([C@@H](C)[C@@H](OC)[C@H](C)C(=O)O)O3)O2)O1 [Monensin, monensin], the inhibition at 25 µM (HCEC monolayers; Homo sapiens, HCEC, 0.5 h, monensin 25 μM, 30 minutes, 10 μg/ml FC5, read-out: inhibition of FC5 transcytosis across HCEC) was 34%.
In the case of C[C@@H]1[C@H](O)[C@@H](C)/C=C/C=C/CC/C=C/C=C/C=C/C=C/C(O[C@H]2O[C@H](C)[C@@H](O)[C@H](N)[C@@H]2O)CC2O[C@](O)(CC(O)C(O)CCC(O)CC(O)CC(O)CC(=O)O[C@H]1C)CC(O)C2C(=O)O (stereo partly shown) [nystatin], the “effect on FC5 transmigration across” value (HCEC monolayers; [1]) is reported as “None of the caveolae-mediated endocytosis inhibitors tested affected”.
For CN(C)CCCn1cc(C2=C(c3c[nH]c4ccccc34)C(=O)NC2=O)c2ccccc21 [BIM-1, bisindolyl-maleimide-1], the “reduction of FC5 transcytosis across HCEC” value (HCEC monolayers; BIM-1 5 μM, 30 minutes pre-incubation) was 25%.
With chondroitin sulfate C the “effect on FC5 transcytosis across the BBB in vitro” value (HCEC monolayers; 10 μg/ml pre-incubation) was “did not affect”.
For CN(C)CCCN1c2ccccc2Sc2ccc(Cl)cc21 [chlorpromazine], the inhibition at 50 µg/mL (HCEC monolayers; Homo sapiens, HCEC, chlorpromazine 50 μg/ml, 30 minutes pretreatment, read-out: inhibition of FC5 transmigration across in vitro BBB model) was 52%.
With mannan the “effect on FC5 transmigration” value (HCEC monolayers; mannan 1 mg/ml) was “did not affect”.
For holo-transferrin, the “effect on FC5 transendothelial transport” value (HCEC monolayers; 100-fold excess (1 mg/ml) of holo-transferrin, 10 μg/ml FC5, 30 minutes) was “not reduced” and the “effect on FC5 uptake” value (HCEC; 100-fold excess of holo-transferrin) was “not reduced”.
C[C@@H]1O[C@@H](O[C@H]2C[C@@H](O)[C@]3(CO)[C@H]4[C@H](O)C[C@]5(C)[C@@H](C6=CC(=O)OC6)CC[C@]5(O)[C@@H]4CC[C@]3(O)C2)[C@H](O)[C@H](O)[C@H]1O [ouabain] was tested, and the “reduction of FC5 transport across HCEC” value (HCEC monolayers; ouabain 1 μM, 30 minutes pretreatment) was 40%.
With protamine sulfate the “effect on FC5 transport across the in vitro BBB model” value (HCEC monolayers; protamine sulfate 40 μg/ml) was “Neither compound affected” and the “effect on FC5 uptake into HCEC” value (HCEC; protamine sulfate 40 μg/ml) was “Neither compound affected”.
For O=c1c(-c2ccc(O)cc2)coc2cc(O)cc(O)c12 [genistein], the “effect on FC5 transcytosis across HCEC” value (HCEC monolayers; genistein 50 μM, 30 minutes pre-incubation) was “not affected”.
In the case of chondroitin sulfate A, the “effect on FC5 transcytosis across the BBB in vitro” value (HCEC monolayers; 10 μg/ml pre-incubation) is reported as “did not affect”.
For CCCC(=O)Nc1ncnc2c1ncn2[C@@H]1O[C@@H]2COP(=O)(O)O[C@H]2[C@H]1OC(=O)CCC [db-cAMP, dibutyryl-cAMP], the “effect on FC5 transcytosis across HCEC” value (HCEC monolayers; db-cAMP 500 μM, 30 minutes pre-incubation) was “not affected”.
